Counter-ions that a name gives are not always drawn.

The test concerns the target T1, hTLR8 (Homo sapiens, UniProt Q9NR97).
T1 construct: host or cells: HEK-Blue hTLR8 cells
T1 sequence (Q9NR97 27-1041): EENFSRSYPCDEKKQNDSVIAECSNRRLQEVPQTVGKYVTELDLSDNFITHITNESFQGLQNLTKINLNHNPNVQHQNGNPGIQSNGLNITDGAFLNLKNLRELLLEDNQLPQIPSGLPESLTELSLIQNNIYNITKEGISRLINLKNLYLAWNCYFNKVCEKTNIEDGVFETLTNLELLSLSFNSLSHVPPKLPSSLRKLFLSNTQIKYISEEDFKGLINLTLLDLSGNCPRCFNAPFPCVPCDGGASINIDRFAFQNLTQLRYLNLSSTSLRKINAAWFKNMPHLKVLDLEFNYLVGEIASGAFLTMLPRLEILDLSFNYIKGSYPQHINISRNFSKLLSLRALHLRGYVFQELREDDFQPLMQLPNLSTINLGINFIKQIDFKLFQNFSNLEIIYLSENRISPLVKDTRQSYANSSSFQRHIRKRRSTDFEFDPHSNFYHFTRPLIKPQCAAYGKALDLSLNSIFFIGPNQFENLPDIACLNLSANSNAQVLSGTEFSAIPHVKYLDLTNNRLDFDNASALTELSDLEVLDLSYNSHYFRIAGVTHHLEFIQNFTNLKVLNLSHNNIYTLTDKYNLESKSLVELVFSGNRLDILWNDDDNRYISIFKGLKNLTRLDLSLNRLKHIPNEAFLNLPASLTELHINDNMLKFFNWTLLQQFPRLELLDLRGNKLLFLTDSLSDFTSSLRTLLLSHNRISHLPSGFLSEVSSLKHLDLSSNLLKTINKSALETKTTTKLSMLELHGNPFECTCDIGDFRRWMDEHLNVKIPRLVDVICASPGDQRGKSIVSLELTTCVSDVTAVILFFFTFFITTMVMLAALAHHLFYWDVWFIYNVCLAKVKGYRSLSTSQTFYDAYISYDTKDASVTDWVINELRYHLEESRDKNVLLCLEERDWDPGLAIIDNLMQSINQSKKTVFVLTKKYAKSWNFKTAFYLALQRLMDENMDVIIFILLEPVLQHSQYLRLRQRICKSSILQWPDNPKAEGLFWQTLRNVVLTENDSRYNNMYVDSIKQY
Kind of test: Agonistic effect on hTLR8, HEK-Blue hTLR8 cells, alkaline phosphatase secretion. The class given is cell-based. The following applies: 16 hours. As for the experimental part:
Experimental Example 4: Agonistic Effect of the Compound of the Invention on hTLR8
In this test, the secretion of alkaline phosphatase in HEK-Blue cells was measured to test the activating effect of the compound of the invention on TLR8 signaling pathway, so as to evaluate the specificity of the agonistic effect of the compound on NLRP3 pathway.
Reagents: DMEM (High glucose); FBS (fetal bovine serum) (Gibco); QUANTI-Blue/InvivoGen/rep-qb2
Cells: HEK-Blue™ hTLR8 cells (human TLR 8 cells) (InvivoGen) Experimental Procedures:
1) The HEK-Blue™ hTLR8 cells in a logarithmic growth phase were trypsinized and resuspended in the medium to a concentration of 2×10^6 cells/mL. 50 μL/well of the cell suspension was added to a 96-well plate. An appropriate amount of 10 mM DMSO solution of the compound to be tested was taken and diluted to a concentration of 2× test concentration with the medium. 50 μL/well was added to the cells in the 96-well plate. The plate was incubated in an incubator at 37° C. and 5% CO2 for 16 hours. The medium was DMEM (High glucose) containing 10% FBS. 2) After the cell incubation, 10 μL of cell culture supernatant was transferred to a 96-well plate. 90 μL/well of QUANTI-Blue detection solution was added, and the mixture was incubated at 37° C. for 3 hours. OD620 was read using a microplate reader.
3) The EC50 of the effect of the tested compound to stimulate hTLR8 was fitted by the GraphPad software log(agonist) vs. response—Variable slope four-parameter method.
For the compound `Nc1cc(NCC2CCOCC2)c2sc(-c3ccn[nH]3)cc2n1` [Compound 120, 2-(1H-pyrazol-5-yl)-N^7-((tetrahydro-2H-pyran-4-yl)methyl)thieno[3,2-b]pyridine-5,7-diamine], the EC50 (in general, the concentration at which the effect is half-maximal) was > 100 µM.
On to `Cc1c(-c2cc[nH]n2)sc2c(NCCN3CCOCC3)cc(N)nc12` [Compound 153], for which the EC50 is > 100 µM.
Take `CC(=O)N1CCC(Nc2cc(N)nc3cc(-c4ccn[nH]4)sc23)CC1` [Compound 92, 1-(4-((5-amino-2-(1H-pyrazol-5-yl)thieno[3,2-b]pyridin-7-yl)amino)piperidin-1-yl)ethanone]: the EC50 is > 100 µM.
For `CN1CCN(c2cc(N)nc3cc(-c4ccn[nH]4)sc23)CC1` [Compound 161] the value was > 100 µM; for `C[C@H]1CN(c2cc(N)nc3cc(-c4ccn[nH]4)sc23)C[C@H](C)O1` [Compound 168], > 100 µM.
For `Nc1cc(NCc2ccccn2)c2sc(-c3ccn[nH]3)cc2n1` [Compound 59, 2-(1H-pyrazol-5-yl)-N^7-(pyridin-2-ylmethyl)thieno[3,2-b]pyridine-5,7-diamine] the value was > 100 µM; for `C[C@H](O)CNc1cc(N)nc2cc(-c3ccn[nH]3)sc12` [Compound 33], > 100 µM; for `Nc1cc(N2CC3CC(C2)N3)c2sc(-c3ccn[nH]3)cc2n1` [Compound 176], > 100 µM.
As to `CN1CCN(CCNc2cc(N)nc3cc(-c4ccn[nH]4)sc23)CC1` [Compound 57, N^7-(2-(4-methylpiperazin-1-yl)ethyl)-2-(1H-pyrazol-5-yl)thieno[3,2-b]pyridine-5,7-diamine], the EC50 is > 100 µM.
As for `C[C@@H]1CN(c2cc(N)nc3cc(-c4ccn[nH]4)sc23)C[C@H](C)O1` [Compound 169], the EC50 was > 100 µM.
`CN1CCN(CCCNc2cc(N)nc3cc(-c4ccn[nH]4)sc23)CC1` [Compound 54, N^7-(3-(4-methylpiperazin-1-yl)propyl)-2-(1H-pyrazol-5-yl)thieno[3,2-b]pyridine-5,7-diamine]: the EC50 was > 100 µM.
On to `Nc1cc(NC2CCC(O)CC2)c2sc(-c3ccn[nH]3)cc2n1` (stereo not drawn) [Compound 114, 4-((5-amino-2-(1H-pyrazol-5-yl)thieno[3,2-b]pyridin-7-yl)amino)-1-cyclohexanol], for which the EC50 was > 100 µM.
In the case of `Cn1cnc(CNc2cc(N)nc3cc(-c4ccn[nH]4)sc23)c1` [Compound 63, N^7-(1-methyl-1H-imidazol-4-yl)methyl-2-(1H-pyrazol-5-yl)thieno[3,2-b]pyridine-5,7-diamine] it was > 100 µM; in that of `CN1CCC(Nc2cc(N)nc3cc(-c4ccn[nH]4)sc23)CC1` [Compound 89, N^7-(1-methylpiperidin-4-yl)-2-(1H-pyrazol-5-yl)thieno[3,2-b]pyridine-5,7-diamine], > 100 µM.
In the case of `Nc1cc(N2CC[C@@H](O)C2)c2sc(-c3ccn[nH]3)cc2n1` [Compound 181] it was > 100 µM; in that of `CC(C)(CO)CNc1cc(N)nc2cc(-c3ccn[nH]3)sc12` [Compound 115, 3-((5-amino-2-(1H-pyrazol-5-yl)thieno[3,2-b]pyridin-7-yl)amino)-2,2-dimethyl-1-propanol], > 100 µM; in that of `CC1(O)CCN(CCCNc2cc(N)nc3cc(-c4ccn[nH]4)sc23)CC1` [Compound 99, 1-(3-((5-amino-2-(1H-pyrazol-5-yl)thieno[3,2-b]pyridin-7-yl)amino)propyl)-4-methylpiperidine-4-ol], > 100 µM.
With `Nc1cc(N2CCNCC2)c2sc(-c3ccn[nH]3)cc2n1` [Compound 175], the EC50 is > 100 µM.
In the case of `Nc1cc(NC[C@@H]2CCCO2)c2sc(-c3ccn[nH]3)cc2n1` [Compound 105, (S)-2-(1H-pyrazol-5-yl)-N^7-((tetrahydrofuran-2-yl)methyl)thieno[3,2-b]pyridine-5,7-diamine] it was > 100 µM.
With `Nc1cc(N2CCN(C=O)CC2)c2sc(-c3ccn[nH]3)cc2n1` [Compound 178], the EC50 was > 100 µM.
In the case of `CCC(CC)Nc1cc(N)nc2cc(-c3ccn[nH]3)sc12` [Compound 113, N^7-(pent-3-yl)-2-(1H-pyrazol-5-yl)thieno[3,2-b]pyridine-5,7-diamine] it was > 100 µM.
On to `CN(CCCNc1cc(N)nc2cc(-c3ccn[nH]3)sc12)C(=O)C1CC1` [Compound 76, N-(3-((5-amino-2-(1H-pyrazol-5-yl)thieno[3,2-b]pyridin-7-yl)amino)propyl)-N-methylcyclopropane formamide], for which the EC50 was > 100 µM.
Consider `Nc1cc(NCCCO)c2sc(-c3ccccc3)cc2n1` [Compound 93, 3-((5-amino-2-phenylthieno[3,2-b]pyridin-7-yl)amino)-1-propanol], for which the EC50 was > 100 µM.
For `CC1(CNc2cc(N)nc3cc(-c4ccn[nH]4)sc23)COC1` [Compound 121, N^7-((3-methyloxetan-3-yl)methyl)-2-(1H-pyrazol-5-yl)thieno[3,2-b]pyridine-5,7-diamine] the value was > 100 µM; for `Cn1cc(CNc2cc(N)nc3cc(-c4ccn[nH]4)sc23)cn1` [Compound 106, N^7-(1-methyl-1H-pyrazol-4-yl)methyl-2-(1H-pyrazol-5-yl)thieno[3,2-b]pyridine-5,7-diamine], > 100 µM.
In the case of `Cc1cccc(-c2cc3nc(N)cc(NCCCO)c3s2)n1` [Compound 91, 3-((5-amino-2-(6-methylpyridin-2-yl)thieno[3,2-b]pyridin-7-yl)amino)-1-propanol] it was > 100 µM; in that of `Nc1cc(NCC(F)(F)c2ccccn2)c2sc(-c3ccn[nH]3)cc2n1` [Compound 97, N^7-(2,2-difluoro-2-(pyridin-2-yl)ethyl)-2-(1H-pyrazol-5-yl)thieno[3,2-b]pyridine-5,7-diamine], > 100 µM.
Regarding `CC1(C)CCN(c2cc(N)nc3cc(-c4ccn[nH]4)sc23)CC1` [Compound 173], the EC50 was > 100 µM.
As to `Nc1cc(N[C@@H]2CC[C@@H](O)C2)c2sc(-c3ccn[nH]3)cc2n1` [Compound 30s, (1R,3R)-3-((5-amino-2-(1H-pyrazol-5-yl)thieno[3,2-b]pyridin-7-yl)amino)cyclopentanol hydrochloride], the EC50 is > 100 µM.
Turning to `Nc1cc(NC2COC2)c2sc(-c3ccn[nH]3)cc2n1` [Compound 112, N^7-(oxetan-3-yl)-2-(1H-pyrazol-5-yl)thieno[3,2-b]pyridine-5,7-diamine], the EC50 was > 100 µM.
With `C[C@@H](CO)Nc1cc(N)nc2cc(-c3ccn[nH]3)sc12` [Compound 108, (S)-2-((5-amino-2-(1H-pyrazol-5-yl)thieno[3,2-b]pyridin-7-yl)amino)propanol], the EC50 is > 100 µM.
For `Nc1cc(N2CCCC(O)C2)c2sc(-c3ccn[nH]3)cc2n1` (stereo not drawn) [Compound 166] the value was > 100 µM; for `Cc1c(-c2cc[nH]n2)sc2c(NCC3CC3)cc(N)nc12` [Compound 156], > 100 µM.
In the case of `Cn1ccc(CNc2cc(N)nc3cc(-c4ccn[nH]4)sc23)n1` [Compound 60, N^7-(1-methyl-1H-pyrazol-3-yl)methyl-2-(1H-pyrazol-5-yl)thieno[3,2-b]pyridine-5,7-diamine] it was > 100 µM; in that of `Nc1cc(NCCNC(=O)C2CC2)c2sc(-c3ccn[nH]3)cc2n1` [Compound 64], > 100 µM; in that of `COC1(C)CCN(c2cc(N)nc3cc(-c4ccn[nH]4)sc23)CC1` [Compound 165], > 100 µM.

For the origin of these results see patent publication US20220056043A1, “NITROGEN-CONTAINING FUSED CYCLIC COMPOUND, PREPARATION METHOD THEREFOR AND USE THEREOF” (SICHUAN KELUN-BIOTECH BIOPHARMACEUTICAL CO., LTD., priority 2019, published 2022).
